Results reported in paper PMC6874057, “Synthesis of Chalcone Derivatives: Inducing Apoptosis of HepG2 Cells via Regulating Reactive Oxygen Species and Mitochondrial Pathway” (Frontiers in Pharmacology, 2019).

Columns and labels:
Assay type in all cases: cell-based, human
HepG2 = assay: MTT cell viability assay, HepG2; details: Homo sapiens, HepG2, 48 h, mean ± SE
Protocol: (§1) HeLa, A549, HepG2, HL-60, and WI-38 cell lines were incubated in DMEM solution containing 10% FBS for 48 h. The incubated tumor cells were seeded into 96-well plates (5 × 10^3 cells/well) to make them attach for 12 h. Afterwards, the cells were processed with the various concentrations of the synthetic compounds and 5-FU for 48 h. After removing the cell culture supernatant, 10 µl MTT (5 mg/ml) solution was dripped into the cells to generate a formazan product, which were dissolved by dimethyl sulfoxide (DMSO) 4 h later. Multifunction microplate reader (Bio-Rad Laboratories, Shanghai, China) was adopted to measure the absorbance at the wave length of 490 nm. The IC50 (the lowest drug concentration causing 50% of the tumor cells inhibition) was then calculated using GraphPad Prism Software (version 5.02) and used to indicate the cytotoxic effect of the target compounds on the selected tumor cells.

HL-60 = assay: MTT cell viability assay, HL-60; details: Homo sapiens, HL-60, 48 h, mean ± SE
Protocol: as §1

HepG2 cells [1] = assay: Cell cycle arrest by PI staining, flow cytometry; details: for G2/M: 24 h
Protocol: HepG2 cells were seeded into six-well plates (3 × 10^5/well) overnight to allow the cells to grow adherently and then incubated with a14 at the concentrations of 0, 30, 40, 50, 60 or 70 µM for 24 and 48 h. After the incubation time, the cells were collected by centrifugation (1000 r/min) and fixed overnight with […] ethanol at 4°C, and then the cells were removed and washed three times with ice-cold PBS. Afterwards, the cells were added to RNase A (Beijing Solarbio Science & Technology Co., Ltd.), and incubated for 30 min at 37°C, after which PI (Beijing Solarbio Science & Technology Co., Ltd.) was added. The fluorescence was monitored by a Beckman Coulter flow cytometer (Beckman Coulter, Inc. California). Ten thousand events were collected per sample, and the data were analyzed using Modfit LT 5.0 software.

Caspase 3 in HepG2 cells = assay: Western blot, Caspase 3; details: 48 h, compared to the control group; in words
Protocol: (§2) HepG2 cells (3 × 10^5 cells/well) were seeded into a six-well plate overnight for adherence, and then treated with a14 (0, 30, 40, 50, 60, and 70 µM) for 48 h. After the cells were collected by centrifugation, they were lysed with the radio immunoprecipitation assay (RIPA) buffer (high) containing 50 mM Tris (pH = 7.4), 150 mM NaCl, 1% TritonX-100, 1% sodium deoxycholate, 0.1% sodium dodecyl sulfate (SDS), 2 mM sodium pyrophosphate, 25 mM β-glycerophosphate, 1 mM ethylenediaminetetraacetic acid (EDTA), 1 mM Na3VO4, and 0.5 ug/ml leupeptin (Beijing Solarbio Science & Technology Co., Ltd.).The extract was then centrifuged at 12,000 rpm for 30 min and the total protein concentration was quantified using the BCA kit (Beijing Solarbio Science & Technology Co., Ltd.). The protein extracts were mixed with the SDS-PAGE protein loading buffer (Beijing Solarbio Science & Technology Co., Ltd.) and then boiled in 100°C water bath for 10 min. The gel was gelatinized using an SDS Gel Kit (Beijing Solarbio Science & Technology Co., Ltd.) and protein extracts were separated by protein SDS-polyacrylamide gel electrophoresis and transferred to Immobilon-NC Membrane (Beijing Solarbio Science & Technology Co., Ltd.). […]

[2] = test system: mitochondrial membrane potential in HepG2 cells; assay: Mitochondrial membrane potential by JC-1 probe; details: a14 50 µM
Protocol: JC-1 probe was used to detect changes in MMP. Firstly, HepG2 cells (3 × 10^5 cells/well) were seeded into a six-well plate overnight for adherence, and then treated with various concentrations of a14 for 48 h. Next, the cells were treated with JC-1 (2.5 µg/ml) at 37°C for 10 min in the dark and rinsed three times with PBS. Then, the six-well plate was placed under the fluorescence microscope (excitation 480/30× nm, emission 515 nm) to observe the fluorescence color and intensity of JC-1 in the cells. In addition, HepG2 cells (3 × 10^5 cells/well) were inoculated on another six-well plate overnight to allow adherence, and then treated with a14 (50 µM) for 0, 12, 24, 36, and 48 h, adding CCCP (without a14) for 20 min to completely lose the mitochondrial membrane potential. Cells were then incubated with JC-1 (2.5 µg/ml) at 37°C in the dark for 10 min and rinsed with PBS for three times. Fluorescence intensity of residual JC-1 in cells was measured by Beckman Coulter flow cytometer (FITC, 525/40BP). The data obtained was analyzed by CytExpert 2.0 software imbedded in the flow cytometry.

Bcl-2 in HepG2 cells = assay: Western blot, Bcl-2; details: different concentrations, 48 h, dose-dependent; in words
Protocol: as §2

Hela = assay: MTT cell viability assay, Hela; details: Homo sapiens, HeLa, 48 h, mean ± SE
Protocol: as §1

HepG2 cells [3] = assay: Annexin V-Alexa Fluor 647/PI staining, flow cytometry; details: 48 h
Protocol: HepG2 cells were seeded into six-well plates (3 × 10^5/well) overnight to allow the cells to grow adherently and then incubated with a14 at the concentrations of 0, 30, 40, 50, 60 or 70 µM for 48 h. In order to assess apoptosis, the double Annexin V-Alexa Fluor 647/PI (Beijing Solarbio Science & Technology Co., Ltd) immunofluorescence labeling method was used. After the cells were collected by centrifugation, 5 µl of Annexin V-Alexa Fluor 647 and 10 µl of PI solution (20 ug/ml) were added to each well. The cells were mixed and incubated at room temperature for 15 min in the dark and then mixed with 400 µl of PBS. Then, a Beckman Coulter flow cytometer (Beckman Coulter, Inc. California) was used to monitor the fluorescence. Ten thousand events were collected for each sample, and the data were analyzed via Flow Jo-V10 software.

IC50 (HepG2): 38.3 ± 0.59 µM
IC50 (HL-60): 121 ± 3.58 µM
IC50 (Hela): 23.3 ± 2.35 µM
Structure (SMILES): COc1cc(/C=C/C(=O)c2ccc(O)c(C(N)=O)c2)cc(OC)c1OC [a14]
G2/M (HepG2 cells [1]; a14 30 µM): 19.07%
increase of percentage of G2/M compared with the untreated group (HepG2 cells [1]; a14 50 µM, 48 h): 73.82%
G2/M (HepG2 cells [1]; a14 70 µM): 79.57%
expression level of Caspases 3 (Caspase 3 in HepG2 cells): decrease
JC-1 (FITC), right of the gate line (green fluorescence) ([2]; 48 h (untreated 50.08%)): 91.94%
JC-1 fluorescence colour under the fluorescence microscope ([2]; 48 h, in words): almost all cells had shown green fluorescence
expression of anti-apoptotic proteins (Bcl-2) (Bcl-2 in HepG2 cells): down-regulated
Early apoptosis (HepG2 cells [3]; a14 30 µM): 3.10%
Late apoptosis (HepG2 cells [3]; a14 30 µM): 9.45%
increase of percentage of early apoptosis compared with the untreated group (HepG2 cells [3]; a14 50 µM): 28.35%
increase of percentage of late apoptosis compared with the untreated group (HepG2 cells [3]; a14 50 µM): 13.51%
Early apoptosis (HepG2 cells [3]; a14 70 µM): 28.62%
Late apoptosis (HepG2 cells [3]; a14 70 µM): 32.89%
